From patent publication US8779156B2, “Analogues for the treatment or prevention of flavivirus infections” (Vertex Pharmaceuticals Incorporated, priority 2010, dated 2014)

What was measured:
[1] = test system: HCV (1b) replicon, Huh-ET cells; test: Cell-based luciferase reporter HCV (1b) RNA replication assay; conditions: Hepatitis C virus; for EC50: 96 h, HCV 1b replicon, luciferase, 4 days incubation, read-out: EC50_1b; for IC50: sub-genomic replicon 1b cell line
[2] = test system: sub-genomic HCV replicon of genotype 1a (cell line W11.8); test: Activity determination using the ELISA and the sub-genomic replicon 1a cell line (NS5A protein level); type: cell-based; conditions: Hepatitis C virus
From the text: Activity Determination Using the ELISA and the Sub-Genomic Replicon 1a Cell Line
The cell line W11.8 containing the sub-genomic HCV replicon of genotype 1a is used to determine the potency of the drugs. The RNA replication in presence of different drug concentrations is indirectly measured in this cell line by the level of NS5A protein content upon drug treatment for four days. It is shown that the level of the NS5A protein correlates well with the level of HCV RNA in the replicon cell line. Cells are split twice a week in order to keep the confluence state below 85% of the culture flask surface area. The culture media used for cell passaging consists of DMEM-10% foetal bovine serum with 100 UI/mL penicillin, 100 μg/mL streptomycin, 2 mM glutamine, 1 mM sodium pyruvate, non-essential amino acids (1×) and 600 μg/mL of G418 final concentrations. Monolayer of the W11.8 cells is trypsinized and cells are counted. Cells are diluted at 50,000 cells/mL with complete DMEM without G418, then approximately 5,000 viable cells (100 μL) are plated per well in a white opaque 96-well microtiter plate. After an incubation period of 2-4 hours at 37° C. in a 5% CO2 incubator, compounds are added at various concentrations. Drugs are resuspended in DMSO at a stock concentration of 10 mM. Then, drugs are serially diluted at twice the final concentration in the same medium. One volume (100 μL) of each drug dilution is then added to each well that contains cells. A control compound is used as an internal standard for each plate assay. Sixteen wells are used as control (0% inhibition) without drug. […] Values from 100% inhibited wells were averaged and used as the background value. Cells are further incubated for four days at 37° C. in a 5% CO2 incubator. Following the incubation time of four days, the media is removed and wells are washed once with 150 μL of PBS at room temperature for five minutes. Cells are then fixed for five minutes using 150 μL per well of cold (−20° C.) fixative solution (50% methanol/50% acetone mix). Cells are then washed twice with 150 μL of PBS (phosphate buffered saline) per well, following the addition of 150 μL of blocking solution, cells are incubated for one hour at 37° C. to block non-specific sites. The blocking solution is removed and cells are washed twice with 150 μL of PBS per well and once with 150 μL of PBSTS solution (PBS/0.1% Triton X-100/0.02% SDS) per well. […] Then, substrate solution (100 μl, SuperSignal ELISA Pico Chemiluminescent Substrate, Fisher Cat. No. 37069) is added in each well and plates are incubated 60 minutes at room temperature prior to reading the luminescence (relative light units) on the Analyst HT plate reader. The percentage of inhibition at each drug concentration tested (in duplicate) is calculated.

Structure (SMILES)	EC50 [1] [pM]	IC50 [1] [pM]	IC50 [2] [pM]
COC(=O)N[C@H](C(=O)N1C[C@@H](C)C[C@H]1c1nc(-c2ccc(-c3ccc(-c4ccc5nc([C@@H]6C[C@H](C)CN6C(=O)[C@@H](NC(=O)OC)C(C)C)[nH]c5c4)cc3)cc2)c[nH]1)C(C)C [Compound 5, ((S)-1-{(2S,4S)-2-[5-(4′-{2-[(2S,4S)-1-((S)-2-Methoxycarbonylamino-3-methyl-butyryl)-4-methyl-pyrrolidin-2-yl]-1H-imidazol-4-yl}-biphenyl-4-yl)-1H-benzoimidazol-2-yl]-4-methyl-pyrrolidine-1-carbonyl}-2-methyl-propyl)-carbamic acid methyl ester]	≤ 5000	5	4.1
COC(=O)NC(C(=O)N1[C@@H](C)CC[C@H]1c1nc2cc(-c3ccc(-c4ccc(-c5cnc([C@@H]6CC[C@H](C)N6C(=O)[C@@H](NC(=O)OC)C(C)C)[nH]5)cc4)cc3)ccc2[nH]1)C(C)C (stereo partly drawn) [Compound 13, Methyl N-[(1S)-1-[(2S,5S)-2-[4-[4-[4-[2-[(2S,5S)-1-[2-(methoxycarbonylamino)-3-methyl-butanoyl]-5-methyl-pyrrolidin-2-yl]-1H-benzimidazol-5-yl]phenyl]phenyl]-1H-imidazol-2-yl]-5-methyl-pyrrolidine-1-carbonyl]-2-methyl-propyl]carbamate]	≤ 5000	2.6	36
COC(=O)N[C@H](C(=O)N1C[C@@H](C)C[C@H]1c1nc(-c2ccc(-c3ccc(-c4ccc5[nH]c([C@@H]6CC[C@H](C)N6C(=O)[C@@H](NC(=O)OC)C(C)C)nc5c4)cc3)cc2)c[nH]1)C(C)C [Compound 18]	≤ 5000	8.5	8.5
